According to patent publication US20160176859A1, “High-Throughput Assay for Identifying Small Molecules that Modulate AMP-activated Protein Kinase (AMPK)” (North Carolina Central University, priority 2013, published 2016):
“Also recorded” adds a separate entry of the source. Where two headings read alike, the source gives them in different places.

Columns and labels:
[1] = test system: p-ACC levels in HEK cells; assay: Cell-intact assay, p-ACC levels in HEK cells; type: cell-based, human; conditions: for p-ACC levels, serum-treated HEK cells: 10% serum; for p-ACC levels, serum-starved HEK cells: 1 hour treatment
Description: Cell-intact assays. HEK cells were grown in DMEM with 10% FBS and 1% penicillin/streptomycin at 37° C. A subset of plates was serum-starved for 5 hours on the day of the experiment. After 5 hours of serum-starvation, cells were treated with either controls (0.2% DMSO, A-769662, or Compound C) or small molecules in the absence of serum for an additional hour prior to lysis. Another subset of plates was serum-starved for 6 hours and then treated with either controls or small molecules for 1 hour in the presence of 10% FBS. A time course of both AMPK and ACC phosphorylation in HEK cells during serum starvation has already been published (Pirkmajer S, Chibalin A V. Serum starvation: caveat emptor. American journal of physiology Cell physiology. 2011 August; 301(2):C272-9. PubMed PMID: 2161361).
After incubating in the presence of drugs for one hour, cells were washed three times with ice-cold PBS and lysed according to published methods (Kazgan N, Williams T, Forsberg L J, Brenman J E. Identification of a nuclear export signal in the catalytic subunit of AMP-activated protein kinase. Molecular biology of the cell. 2010 Oct. 1; 21(19):3433-42. PubMed PMID: 20685962. Pubmed Central PMCID: 2947478). Lysates were centrifuged at 16,000 g (10 minutes, 4° C.). Clarified supernatant (30 μL) was then transferred to 10 μL 4X loading buffer and 2 μL 1 M DTT. Samples were immediately frozen at −20° C. The concentration of protein in diluted clarified supernatant was calculated using a DC protein assay kit (BioRad) prior to western analyses.
(§1) Western analyses. Protein samples were boiled for 15 minutes in loading buffer and DTT prior to SDS-PAGE. Blots for protein-based assays were sequentially incubated with the following: 5% BSA in 1× TBS (1 hr, 22° C.), 1:1000 rabbit anti-human p-AMPK-α antibody or p-ACC antibody (2 hr, 22° C.), and 1:10,000 donkey anti-rabbit secondary antibody (1 hr, 22° C.). Blots for phosphatase assays were probed a second time using 1:100 mouse anti-human total AMPK antibody (overnight, 4° C.; from UNC Antibody Core Facility) followed by 1:10,000 donkey anti-mouse secondary antibody (1 hr, 22° C.). Blots for clarified cell lysates were sequentially probed for p-AMPK (1:500 dilution, overnight at 4° C. or 4 hours at 22° C.), total ACC (1:1000 dilution, overnight at 4° C. or 4 hours at 22° C.), and tubulin (1:10,000 dilution, 1 hr, 22° C.); a parallel set of blots were probed for p-ACC (1:500 dilution, overnight at 4° C. or 4 hours at 22° C.), total AMPK (1:1000 dilution, overnight at 4° C. or 4 hours at 22° C.), and tubulin (1:10,000 dilution, 1 hr, 22° C.). Because phosphorylated and total protein were imaged on separate membranes, the signals were normalized to the internal tubulin signal prior to calculating the ratio of phosphorylated to total protein. Scanning and imaging were completed according to published methods.

purified p-AMPK = target: T1, purified p-AMPK (Rattus norvegicus, UniProt P54645+P80385); assay: Kinase assay with purified p-AMPK and GST-ACC peptide; type: biochemical; conditions: compared to DMSO control
T1 construct: Full-length AMPK intended for use in phosphatase and kinase assays was purified, mixed with GST-CaMKKβ; made in house; host or cells: Rosetta cells (E. coli); phosphorylated in vitro with GST-CaMKKβ, which was then removed on glutathione resin
T1 sequence (P54645 with tags, fused parts or gaps limits assumed): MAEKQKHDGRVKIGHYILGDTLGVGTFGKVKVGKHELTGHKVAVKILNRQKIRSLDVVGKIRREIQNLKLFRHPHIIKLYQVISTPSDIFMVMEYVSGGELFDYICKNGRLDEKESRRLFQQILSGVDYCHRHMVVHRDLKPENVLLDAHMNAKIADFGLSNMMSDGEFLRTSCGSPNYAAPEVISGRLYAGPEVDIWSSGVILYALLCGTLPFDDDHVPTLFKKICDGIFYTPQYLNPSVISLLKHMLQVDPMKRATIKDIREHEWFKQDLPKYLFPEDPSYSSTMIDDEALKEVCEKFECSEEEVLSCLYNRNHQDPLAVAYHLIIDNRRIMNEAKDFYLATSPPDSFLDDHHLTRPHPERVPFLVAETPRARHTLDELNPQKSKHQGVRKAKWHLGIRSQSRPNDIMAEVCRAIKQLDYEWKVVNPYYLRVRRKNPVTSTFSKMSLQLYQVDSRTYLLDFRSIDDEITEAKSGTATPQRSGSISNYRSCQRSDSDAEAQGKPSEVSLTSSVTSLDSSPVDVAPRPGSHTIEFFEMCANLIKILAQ
T1 sequence (P80386 whole entry partner): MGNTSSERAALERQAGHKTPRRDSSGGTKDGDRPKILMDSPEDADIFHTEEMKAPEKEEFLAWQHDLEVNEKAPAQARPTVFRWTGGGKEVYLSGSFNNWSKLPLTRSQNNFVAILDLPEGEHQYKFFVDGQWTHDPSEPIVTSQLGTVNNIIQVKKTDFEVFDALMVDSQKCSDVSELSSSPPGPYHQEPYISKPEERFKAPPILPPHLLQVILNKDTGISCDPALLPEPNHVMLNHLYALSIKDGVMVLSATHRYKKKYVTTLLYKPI
T1 sequence (P80385 whole entry): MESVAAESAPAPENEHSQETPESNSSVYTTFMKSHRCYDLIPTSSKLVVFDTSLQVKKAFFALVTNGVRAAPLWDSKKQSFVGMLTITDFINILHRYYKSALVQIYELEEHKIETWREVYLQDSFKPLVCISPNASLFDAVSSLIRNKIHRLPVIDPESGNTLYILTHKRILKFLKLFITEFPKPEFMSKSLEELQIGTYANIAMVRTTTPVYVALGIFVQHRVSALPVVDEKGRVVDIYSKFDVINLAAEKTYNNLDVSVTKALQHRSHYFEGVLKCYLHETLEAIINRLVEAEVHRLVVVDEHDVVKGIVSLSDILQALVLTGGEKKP
Description: Kinase assays. Assay conditions were adapted from published methods (17). The final assay buffer was comprised of 40 mM Hepes (pH 7.4) 5 mM MgCl2, 200 μM ATP, 75 mM NaCl, 0.01% Triton X-100, 1 mM DTT, and 0.45% DMSO (vehicle). Because some analogs had poor solubility at high concentrations, all analogs and controls were diluted in assay buffer and centrifuged (1 min, 5000 rpm, 4° C.) to remove insoluble matter. GST-ACC peptide and p-AMPK were thawed, diluted in assay buffer, and then added to the supernatant at final concentrations of 900 and 0.1 ng/μL, respectively. Kinase assays were assembled on ice; reactions were allowed to proceed for 30 minutes at room temperature. Reactions were stopped by the addition of loading buffer and 48 mM DTT followed promptly by freezing at −20° C.
as §1

[2] = test system: phospho-AMPKα in HEK cells; assay: Western blot of treated HEK cells for phospho-AMPKα (Example 3); type: cell-based, human; conditions: for AMPK modulatory activity / phospho-AMPKα (Western blot, FIG. 7): HEK cells; for phospho-AMPKα (Western blot, FIG. 7): standardized to tubulin; for phospho-AMPK (FIG. 8): human Hek293 cells
Description: Approximately 50 compounds will be tested from those identified above using the methods and assays described herein on HEK cells in culture in 6 well plate format for their ability to enter cells and modulate AMPK, initially at 1 μM, 2 μM, 10 μM and 20 μM compound in 0.1% DMSO. […] Molecular biology of the cell 23, 381-389, doi:10.1091/mbc.E11-08-0699 (2012)). Examples of this approach with compounds identified from our preliminary screening that have AMPK modulatory activity are shown in FIG. 7. […] See also FIG. 8. […] By testing under multiple conditions, the likelihood of identifying agonists and antagonists of AMPK activity in vivo, and particularly those that are not dependent on a particular means of altering AMPK activity may increase.
The phosphorylation status of AMPKα with a phospho-specific antibody (against the activation/T-loop threonine 172) (Cell Signaling) will be quantified. […] Molecular biology of the cell 21, 3433-3442, doi:10.1091/mbc.E10-04-0347 (2010)) (FIG. 7). […] In addition, phospho-ACC (Cell Signaling) will be measured by western blot. Cytoplasmic acetyl coenzyme A carboxylase (ACC) is the best known AMPK direct downstream target, and is a rate-limiting enzyme in the energy consuming process of fatty acid synthesis (Davies, S. P. et al. Purification of the AMP-activated protein kinase on ATP-gamma-sepharose and analysis of its subunit structure. European journal of biochemistry/FEBS 223, 351-357 (1994); Carling, D., Zammit, V. A. & Hardie, D. G. A common bicyclic protein kinase cascade inactivates the regulatory enzymes of fatty acid and cholesterol biosynthesis. FEBS Lett 223, 217-222 (1987)). Phospho-ACC will be standardized to both tubulin and total (non-phospho) ACC to ensure we are not measuring changes in total ACC levels. Compounds that modulate phospho-AMPKα and phospho-ACC status in the same direction (both increase or both decrease) will be prioritized over compounds that produce different affects on AMPKα versus ACC phosphorylation for in vitro kinase or phosphatase protection assays.

[3] = target: T2, full-length AMPK (rat His-α1, β1, γ1) (Rattus norvegicus, UniProt P54645+P80385); assay: MANT-ADP fluorescence displacement (binding) assay, full-length AMPK; conditions: for thiol-reactivity: binding curves in the presence and absence of DTT: 0-1 mM DTT; for inhibition of the protein-bound signal of MANT-ADP in the triplicate similarity screen: final concentration 45 μM
T2 construct: Tricistronic vectors encoding full-length AMPK (rat His-α1, β1, γ1); made in house; host or cells: Rosetta cells (E. coli), tricistronic vector, gift of Dr. Uwe Schlattner
T2 sequence (P54645 with tags, fused parts or gaps limits assumed): as the sequence (P54645 with tags, fused parts or gaps limits assumed) above
T2 sequence (P80386 whole entry partner): as the sequence (P80386 whole entry partner) above
T2 sequence (P80385 whole entry): as the sequence (P80385 whole entry) above
Description: (§2) Except where otherwise noted, assays were performed with the following conditions: 0.5 μM full-length AMPK (130 kDa) or 0.5 μM regulatory fragment (66.7 kDa), 0.1 μM MANT-ADP, 10 mM Tris-HCl (pH 8), 0.45% DMSO (vehicle and negative control), and 5 μM ADP (positive control). Automated assays were assembled in two steps. First, a NanoQuot (BioTek) was used to dispense 11 μL of master mix (protein, MANT-ADP, and Tris-HCl) per well in black, low volume 384-well plates (Corning-3676). Next, a Biomek NX workstation (Beckman-Coulter, Brea, Calif.) equipped with pintools (VP Scientific, San Diego Calif.) was used to transfer 50 nL of controls (columns 1, 2, 23, and 24) and small molecules (4.5 μM final). Controls and library molecules were transferred from Axygen 384-well rigid PCR plates (Cat no. 321-67-051) at 221× concentration for single-concentration screening. Plates were shaken for 10 minutes prior to reading.
(§3) Fluorescence emission spectra of MANT-ADP were collected using a PerkinElmer EnSpire plate reader with an excitation wavelength of 360 nm. Background fluorescence from protein was subtracted from the raw data prior to plotting MANT-ADP's fluorescence in the presence of protein. Fluorescence detection for assay development and screening was performed on either a BMG Pherastar Plus (360/10 excitation and 460/10 emission filters) or a PerkinElmer EnVision (355/40 excitation and 460/25 emission filters), depending on equipment availability. Relative fluorescence units (RFUs) were recorded at room temperature.
(§4) ScreenAble (ScreenAble Solutions, Chapel Hill, N.C.) high-throughput screening software was utilized for merging screening data and chemical structure, for statistical design of experiments, and hit selection. GraphPad Prism was used for non-linear regression analysis of dose response data.
(§5) Binding assays. Except where otherwise noted, assay assembly and data analysis were completed according to published methods. Binding assays were manually assembled, with the exception of the similarity screen. Automated assembly of the similarity screen was completed according to published methods. Analogs were cherry-picked from a 10 mM Asinex small molecule library and a 0.5 mM kinase focused library, which has been described previously (4). Molecules were screened at a final concentration of 45 and 2.3 μM, respectively.

[4] = target: T3, AMPK regulatory fragment (rat His-α1, 396-548; human β2, 187-272; rat γ1) (Rattus norvegicus, UniProt P80385); assay: MANT-ADP fluorescence displacement (binding) assay, AMPK regulatory fragment; conditions: inhibition of MANT-ADP fluorescence; for IC50: read-out: IC50 (data in parentheses)
T3 construct: rat His-α1, 396-548; human β2, 187-272; rat γ1; made in house; host or cells: Rosetta cells (E. coli), tricistronic vector, gift of Dr. Steve Gamblin
T3 sequence (P54645 407-559 partner limits assumed): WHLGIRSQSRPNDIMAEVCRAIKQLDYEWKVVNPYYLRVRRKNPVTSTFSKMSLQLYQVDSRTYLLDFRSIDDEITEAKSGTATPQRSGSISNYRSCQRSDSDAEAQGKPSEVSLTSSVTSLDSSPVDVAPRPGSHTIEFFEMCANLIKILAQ
T3 sequence (O43741 187-272 partner limits assumed): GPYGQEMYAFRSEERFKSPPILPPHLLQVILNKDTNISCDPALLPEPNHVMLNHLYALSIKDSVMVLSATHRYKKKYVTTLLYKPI
T3 sequence (P80385 whole entry, the tested form may be a part): as the sequence (P80385 whole entry) above
Description: as §2, §3, §4, §5

[5] = target: T4, p-AMPK in the presence of PP2C (Rattus norvegicus, UniProt P54645+P80385); assay: Phosphatase assay: protection of p-AMPK from dephosphorylation by PP2C; type: biochemical; conditions: p-AMPK/total AMPK ratio normalized to no-PP2C control
T4 construct: Full-length AMPK intended for use in phosphatase and kinase assays was purified, mixed with GST-CaMKKβ; made in house; host or cells: Rosetta cells (E. coli); phosphorylated in vitro with GST-CaMKKβ, which was then removed
T4 sequence (P54645 with tags, fused parts or gaps limits assumed): as the sequence (P54645 with tags, fused parts or gaps limits assumed) above
T4 sequence (P80386 whole entry partner): as the sequence (P80386 whole entry partner) above
T4 sequence (P80385 whole entry): as the sequence (P80385 whole entry) above
Description: Phosphatase assays. Assay conditions were adapted from published methods (18). In short, the final assay buffer was compromised of 50 mM Tris (pH 7.5), […], 0.01% Triton X-100, 1 mM DTT, and 0.45% DMSO (vehicle). Because some analogs had poor solubility at high concentrations, all analogs and controls were diluted in assay buffer and centrifuged (1 min, 5000 rpm, 4° C.) to remove insoluble matter. PP2C and p-AMPK were added to the supernatant at final concentrations of 2 and 3 ng/μL, respectively. Phosphatase reactions were allowed to proceed for 30 minutes at 37° C. Reactions were stopped by the addition of loading buffer and 48 mM DTT followed promptly by freezing at −20° C.
Western analyses. Protein samples were boiled for 15 minutes in loading buffer and DTT prior to SDS-PAGE. Blots for protein-based assays were sequentially incubated with the following: 5% BSA in 1× TBS (1 hr, 22° C.), 1:1000 rabbit anti-human p-AMPK-α antibody or p-ACC antibody (2 hr, 22° C.), and 1:10,000 donkey anti-rabbit secondary antibody (1 hr, 22° C.). Blots for phosphatase assays were probed a second time using 1:100 mouse anti-human total AMPK antibody (overnight, 4° C.; from UNC Antibody Core Facility) followed by 1:10,000 donkey anti-mouse secondary antibody (1 hr, 22° C.). […]

[6] = full-length AMPK, inhibition of MANT-ADP fluorescence
[7] = full-length AMPK, inhibition of MANT-ADP fluorescence, read-out: IC50
[8] = full-length AMPK, Example 4, read-out: binding IC50

O=C1/C(=C/c2ccc(-c3ccc(F)cc3)o2)SC(=S)N1CCS(=O)(=O)O [STK823366, 2-[(5Z)-5-{[5-(4-fluorophenyl)furan-2-yl]methylidene}-4-oxo-2-sulfanylidene-1,3-thiazolidin-3-yl]ethane-1-sulfonic acid]
p-ACC levels, serum-treated HEK cells [1]: decreased phosphorylation; also recorded: decreases
p-ACC levels, serum-starved HEK cells [1]: decreased phosphorylation
activity of purified p-AMPK (phosphorylation of GST-ACC peptide), dose response (purified p-AMPK): dose-dependently inhibited

O=C1Nc2ccc(Br)cc2/C1=C1/SC(=S)N(C(Cc2ccccc2)C(=O)O)C1=O (stereo not drawn) [STL035166]
AMPK modulatory activity [2]: inhibitory activity
phospho-AMPKα (Western blot, FIG. 7) [2]: decreased
phospho-AMPK (FIG. 8) [2]: increase
thiol-reactivity: binding curves in the presence and absence of DTT [3]: dramatically different dose response curve
IC50 ([3]; 1 mM DTT, read-out: extrapolated IC50 in the presence of DTT): ~250 µM
Hill slope [3, 6]: 1.3
IC50 [3, 7]: 2.7 µM
Hill slope (data in parentheses) [4]: 1.4
IC50 [4]: 1.5 µM

c1cc(-c2cnn3cc(-c4ccc(OCCN5CCCCC5)cc4)cnc23)ccn1 [Compound C, reference compound]
p-ACC levels, serum-treated HEK cells [1]: modest decreases
p-ACC levels, serum-starved HEK cells [1]: best inhibition
activity of purified p-AMPK (phosphorylation of GST-ACC peptide), dose response (purified p-AMPK): inhibits substrate phosphorylation

COc1cc(C(=O)/C=C/c2cc(O)c(O)c(Cl)c2)cc(OC)c1OC [Example Z64358107]
Hill slope [3, 6]: 1.1
IC50 [3, 7]: 0.3 µM
Hill slope (data in parentheses) [4]: 2.6
IC50 [4]: 0.2 µM

CCCOC(=O)c1cc(-c2ccc(/C=C3\SC(=S)NC3=O)o2)ccc1Cl [BAS 03338548, Propyl 2-chloro-5-(5-{[(5Z)-4-oxo-2-sulfanylidene-1,3-thiazolidin-5-ylidene]methyl}furan-2-yl)benzoate]
inhibition of the protein-bound signal of MANT-ADP in the triplicate similarity screen [3]: reproducibly inhibited
IC50 [3, 8]: < 5 µM
protection of p-AMPK from dephosphorylation [5]: failed to protect

Cc1ccc(-c2ccc(/C=C3\SC(=S)N(CC(=O)O)C3=O)o2)cc1 [STK740822, 2-{(5Z)-5-{[5-(4-Methylphenyl)furan-2-yl]methylidene}-4-oxo-2-sulfanylidene-1,3-thiazolidin-3-yl}acetic acid]
AMPK modulatory activity [2]: activating activity
phospho-AMPKα (Western blot, FIG. 7) [2]: increased
phospho-AMPK (FIG. 8) [2]: increase
thiol-reactivity: binding curves in the presence and absence of DTT [3]: not thiol-reactive
Hill slope ([3]; full-length AMPK, Example 4): 1.2
IC50 [3, 8]: 9 µM
Hill slope [3, 6]: 1.4 (1.4)
IC50 [3, 7]: 2.9 µM
Hill slope (data in parentheses) [4]: 1.4 (1.4)
IC50 [4]: 1.6 µM

COC(=O)CN1C(=O)/C(=C/c2ccc(OC)cc2)SC1=S [BAS 00502779]
inhibition of the protein-bound signal of MANT-ADP in the triplicate similarity screen [3]: reproducibly inhibited
